Measurements: patent US20240400564A1 (Syndax Pharmaceuticals, Inc, priority 2021, published 2024)

Biological target: hERG (Homo sapiens, UniProt Q12809)
Assay: Patch clamp assay (hERG tail currents, whole-cell)

Sequence of hERG (Q12809 whole entry): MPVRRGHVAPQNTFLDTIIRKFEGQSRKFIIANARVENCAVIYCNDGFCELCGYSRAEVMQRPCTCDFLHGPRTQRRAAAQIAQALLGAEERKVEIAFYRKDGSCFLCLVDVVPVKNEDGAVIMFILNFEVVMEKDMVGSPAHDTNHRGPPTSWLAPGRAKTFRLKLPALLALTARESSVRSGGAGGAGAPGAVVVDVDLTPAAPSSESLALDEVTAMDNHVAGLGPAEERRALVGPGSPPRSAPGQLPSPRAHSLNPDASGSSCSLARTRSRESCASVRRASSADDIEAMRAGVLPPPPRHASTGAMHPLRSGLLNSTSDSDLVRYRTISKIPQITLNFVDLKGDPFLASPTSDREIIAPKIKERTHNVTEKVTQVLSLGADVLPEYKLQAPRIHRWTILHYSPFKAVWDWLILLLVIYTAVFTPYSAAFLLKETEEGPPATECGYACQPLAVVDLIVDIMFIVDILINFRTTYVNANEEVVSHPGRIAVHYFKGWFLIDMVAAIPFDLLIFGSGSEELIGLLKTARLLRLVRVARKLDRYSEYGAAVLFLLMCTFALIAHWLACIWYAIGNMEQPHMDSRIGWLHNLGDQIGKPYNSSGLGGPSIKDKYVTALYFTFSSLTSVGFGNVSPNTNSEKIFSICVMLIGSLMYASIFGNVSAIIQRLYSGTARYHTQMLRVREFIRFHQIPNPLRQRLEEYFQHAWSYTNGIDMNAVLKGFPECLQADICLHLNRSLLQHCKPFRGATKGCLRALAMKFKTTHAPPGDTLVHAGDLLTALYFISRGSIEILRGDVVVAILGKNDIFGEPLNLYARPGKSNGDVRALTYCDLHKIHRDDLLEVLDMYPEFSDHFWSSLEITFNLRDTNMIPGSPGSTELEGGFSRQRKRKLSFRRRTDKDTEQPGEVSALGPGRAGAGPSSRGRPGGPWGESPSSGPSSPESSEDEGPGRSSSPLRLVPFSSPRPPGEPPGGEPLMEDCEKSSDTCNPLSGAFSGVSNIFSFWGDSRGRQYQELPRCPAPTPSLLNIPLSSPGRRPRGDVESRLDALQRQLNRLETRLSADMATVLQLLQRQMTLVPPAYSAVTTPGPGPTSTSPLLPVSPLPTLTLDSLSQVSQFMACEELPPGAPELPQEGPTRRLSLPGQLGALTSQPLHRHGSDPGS

For `CC(C)N(CC(F)F)C(=O)c1cc(F)ccc1Oc1cncnc1N1CC2(CCN(C[C@@H]3CC[C@@H](NS(=O)(=O)N4CCOCC4)CO3)CC2)C1` [Example 94, N-(2,2-Difluoroethyl)-5-fluoro-N-isopropyl-2-((4-(7-(((2S,5R)-5-(morpholine-4-sulfonamido)tetrahydro-2H-pyran-2-yl)methyl)-2,7-diazaspiro[3.5]nonan-2-yl)pyrimidin-5-yl)oxy)benzamide], the “hERG % Remaining” value (10 μM compound) was “+++ (≥66%)” and the “hERG % Remaining” value (30 μM compound) was “++ (233% and ≤66%)”.
In the case of `CCN(C(=O)c1cc(F)ccc1Oc1cncnc1N1CC2(CCN(C[C@@H]3CC[C@@H](NS(=O)(=O)c4cccc(OC)c4)CO3)CC2)C1)C(C)C` [Example 66, N-Ethyl-5-fluoro-N-isopropyl-2-((4-(7-(((2S,5R)-5-((3-methoxyphenyl)sulfonamido)tetrahydro-2H-pyran-2-yl)methyl)-2,7-diazaspiro[3.5]nonan-2-yl)pyrimidin-5-yl)oxy)benzamide], the “hERG % Remaining” value (10 μM compound) is reported as “+ (<33%)” and the “hERG % Remaining” value (30 μM compound) is reported as “+ (<33%)”.
With `CC(C)N(CC(F)(F)F)C(=O)c1cc(F)ccc1Oc1cncnc1N1CC2(CCN(C[C@@H]3CC[C@@H](NS(=O)(=O)N(C)C)CO3)CC2)C1` [Example 107, 2-((4-(7-(((2S,5R)-5-((N,N-Dimethylsulfamoyl)amino)tetrahydro-2H-pyran-2-yl)methyl)-2,7-diazaspiro[3.5]nonan-2-yl)pyrimidin-5-yl)oxy)-5-fluoro-N-isopropyl-N-(2,2,2-trifluoroethyl)benzamide] the “hERG % Remaining” value (10 μM compound) was “+++ (≥66%)” and the “hERG % Remaining” value (30 μM compound) was “++ (233% and ≤66%)”.
For `CCN(CC)S(=O)(=O)N[C@@H]1CC[C@@H](CN2CCC3(CC2)CN(c2ncncc2Oc2ccc(F)cc2C(=O)N(CC(F)F)C(C)C)C3)OC1` [Example 97, 2-((4-(7-(((2S,5R)-5-((N,N-Diethylsulfamoyl)amino)tetrahydro-2H-pyran-2-yl)methyl)-2,7-diazaspiro[3.5]nonan-2-yl)pyrimidin-5-yl)oxy)-N-(2,2-difluoroethyl)-5-fluoro-N-isopropylbenzamide], the “hERG % Remaining” value (10 μM compound) was “++ (233% and ≤66%)” and the “hERG % Remaining” value (30 μM compound) was “+ (<33%)”.
With `CC(C)N(CC(F)F)C(=O)c1cc(F)ccc1Oc1cncnc1N1CC2(CCN(C[C@@H]3CC[C@@H](NS(=O)(=O)N(C)CCCO)CO3)CC2)C1` [Example 214, N-(2,2-difluoroethyl)-5-fluoro-2-((4-(7-(((2S,5R)-5-((N-(3-hydroxypropyl)-N-methylsulfamoyl)amino)tetrahydro-2H-pyran-2-yl)methyl)-2,7-diazaspiro[3.5]nonan-2-yl)pyrimidin-5-yl)oxy)-N-isopropylbenzamide] the “hERG % Remaining” value (30 μM compound) was “+++ (≥66%)”.
With `CC(C)N(C(=O)c1cc(F)ccc1Oc1cncnc1N1CC2(CCN(C[C@@H]3CC[C@@H](NS(=O)(=O)N(C)C)CO3)CC2)C1)[C@@H]1CCOC1` [Example 167, 2-((4-(7-(((2S,5R)-5-((N,N-Dimethylsulfamoyl)amino)tetrahydro-2H-pyran-2-yl)methyl)-2,7-diazaspiro[3.5]nonan-2-yl)pyrimidin-5-yl)oxy)-5-fluoro-N-isopropyl-N-((R)-tetrahydrofuran-3-yl)benzamide] the “hERG % Remaining” value (30 μM compound) was “+++ (≥66%)” and the “hERG % Remaining” value (100 μM compound) was “+++ (≥66%)”.
For `CC(C)N(CC(F)F)C(=O)c1cc(F)ccc1Oc1nncnc1N1CC2(CCN(C[C@@H]3CC[C@@H](NS(=O)(=O)N4CCC4)CO3)CC2)C1` [Example 189, 2-((5-(7-(((2S,5R)-5-(Azetidine-1-sulfonamido)tetrahydro-2H-pyran-2-yl)methyl)-2,7-diazaspiro[3.5]nonan-2-yl)-1,2,4-triazin-6-yl)oxy)-N-(2,2-difluoroethyl)-5-fluoro-N-isopropylbenzamide], the “hERG % Remaining” value (30 μM compound) was “+++ (≥66%)”.
`C[C@@H]1COC[C@H](C)N1C(=O)c1cc(F)ccc1Oc1cncnc1N1CC2(CCN(C[C@@H]3CC[C@@H](NS(=O)(=O)N4CCC4)CO3)CC2)C1` [Example 161, N-((3R,6S)-6-((2-(5-(2-((3R,5S)-3,5-Dimethylmorpholine-4-carbonyl)-4-fluorophenoxy)pyrimidin-4-yl)-2,7-diazaspiro[3.5]nonan-7-yl)methyl)tetrahydro-2H-pyran-3-yl)azetidine-1-sulfonamide] was tested, and the “hERG % Remaining” value (30 μM compound) was “+++ (≥66%)”.
For `Cc1nc(S(=O)(=O)N[C@@H]2CC[C@@H](CN3CCC4(CC3)CN(c3ncncc3Oc3ccc(F)cc3C(=O)N3[C@H](C)COC[C@H]3C)C4)OC2)cs1` [Example 122, N-((3R,6S)-6-((2-(5-(2-((3R,5R)-3,5-Dimethylmorpholine-4-carbonyl)-4-fluorophenoxy)pyrimidin-4-yl)-2,7-diazaspiro[3.5]nonan-7-yl)methyl)tetrahydro-2H-pyran-3-yl)-2-methylthiazole-4-sulfonamide], the “hERG % Remaining” value (30 μM compound) was “+++ (≥66%)”.
In the case of `CNS(=O)(=O)N[C@@H]1CC[C@@H](CN2CCC3(CC2)CN(c2ncncc2Oc2ccc(F)cc2C(=O)N(C(C)C)C2CC(F)(F)C2)C3)OC1` [Example 154, N-(3,3-Difluorocyclobutyl)-5-fluoro-N-isopropyl-2-((4-(7-(((2S,5R)-5-((N-methylsulfamoyl)amino)tetrahydro-2H-pyran-2-yl)methyl)-2,7-diazaspiro[3.5]nonan-2-yl)pyrimidin-5-yl)oxy)benzamide], the “hERG % Remaining” value (10 μM compound) is reported as “+++ (≥66%)” and the “hERG % Remaining” value (30 μM compound) is reported as “++ (233% and ≤66%)”.
`CC(C)N(CC(F)F)C(=O)c1cc(F)ccc1Oc1cncnc1N1CC2(CCN(C[C@@H]3CC[C@@H](NS(=O)(=O)NCC4CC4)CO3)CC2)C1` [Example 148, 2-((4-(7-(((2S,5R)-5-((N-(Cyclopropylmethyl)sulfamoyl)amino)tetrahydro-2H-pyran-2-yl)methyl)-2,7-diazaspiro[3.5]nonan-2-yl)pyrimidin-5-yl)oxy)-N-(2,2-difluoroethyl)-5-fluoro-N-isopropylbenzamide] was tested, and the “hERG % Remaining” value (30 μM compound) was “+++ (≥66%)”.
In the case of `CCN(C(=O)c1cc(F)ccc1Oc1cncnc1N1CC2(CCN(C[C@@H]3CC[C@@H](NS(=O)(=O)NC4CC4)CO3)CC2)C1)C(C)C` [Example 142, 2-((4-(7-(((2S,5R)-5-((N-Cyclopropylsulfamoyl)amino)tetrahydro-2H-pyran-2-yl)methyl)-2,7-diazaspiro[3.5]nonan-2-yl)pyrimidin-5-yl)oxy)-N-ethyl-5-fluoro-N-isopropylbenzamide], the “hERG % Remaining” value (30 μM compound) is reported as “++ (233% and ≤66%)”.
With `CC(C)N(CC(F)F)C(=O)c1cc(F)ccc1Oc1cncnc1N1CC2(CCN(C[C@@H]3CC[C@@H](NS(N)(=O)=O)CO3)CC2)C1` [Example 240, N-(2,2-Difluoroethyl)-5-fluoro-N-isopropyl-2-((4-(7-(((2S,5R)-5-(sulfamoylamino)tetrahydro-2H-pyran-2-yl)methyl)-2,7-diazaspiro[3.5]nonan-2-yl)pyrimidin-5-yl)oxy)benzamide] the “hERG % Remaining” value (30 μM compound) was “+++ (≥66%)”.
`C[C@@H]1COC[C@@H](C)N1C(=O)c1cc(F)ccc1Oc1cncnc1N1CC2(CCN(C[C@@H]3CC[C@@H](NS(=O)(=O)NCC4CC4)CO3)CC2)C1` [Example 158, (Cyclopropylmethyl)({[(3R,6S)-6-{[2-(5-{2-[(3R,5R)-3,5-dimethylmorpholine-4-carbonyl]-4-fluorophenoxy}pyrimidin-4-yl)-2,7-diazaspiro[3.5]nonan-7-yl]methyl}oxan-3-yl]sulfamoyl})amine] was tested, and the “hERG % Remaining” value (30 μM compound) was “+++ (≥66%)”.
